Reference: US10660967B2, “Curcumin conjugates and methods of use thereof” (priority 2016, dated 2020)

System: carrageenan induced paw edema
Assay: Anti-inflammatory activity: acute carrageenan induced paw edema in rats
Type: in vivo, Wister rats
Details: 10 mg kg^−1 indomethacin mol equivalent; for % inhibition of edema / Mean edema thickness: intraperitoneally; for Mean edema thickness: mean ± SE; for Potency (% inhibition of edema relative to that of indomethacin reference standard): at 4 h effect
Experimental: The anti-inflammatory activity of the tested compounds was determined in vivo by the acute carrageenan induced paw edema standard method in rats. See, Naumov, et al., Bioorg. Med. Chem. Lett, 25: 2314-2320 (2015), Tiwari, et al., Org. Biomol. Chem, 12: 7238-7249 (2014), Girgis, et al., Eur. J. Med. Chem, 50: 1-8 (2012), Barsoum, et al., Eur. J. Med. Chem, 44: 2172-2177 (2009), Girgis, et al., Eur. J. Med. Chem, 44: 1972-1977 (2009), Girgis, et al., Eur. J. Med. Chem, 44: 1257-1264 (2009), Girgis, et al., Eur. J. Med. Chem, 44: 91-100 (2009), Girgis, et al., Eur. J. Med. Chem, 43: 2116-2121 (2008), Girgis, et al., Bioorg. Med. Chem, 14: 8527-8532 (2006), and Barsoum, et al., Bioorg. Med. Chem, 14: 3929-3937 (2006).
Adult Wister rats of either sex (pregnant female animals were excluded) weighing 120-150 g were divided into 18 groups of 6 animals each. […] The control group was given DMSO only. Carrageenan paw edema was induced by subcutaneous injection of freshly prepared 1% solution of carrageenan in saline (0.9%, 0.1 ml per rat) into subplantar tissue of the right hind paw of rats. The thickness of the paw was measured (in mm) after successive time intervals (1, 2,3,4 and 24 h) and compared with the initial hind paw thickness of each rat for determining the edema thickness. Data were collected, checked, revised and analyzed. Quantitative variables from normal distribution were expressed as means±SE “standard error”. The anti-inflammatory activity was expressed as percentage inhibition of edema thickness in treated animals in comparison with the control group according to eqn. (1)
Where, Vc and Vt are the mean of edema paw thickness for the control and tested compound treated animal groups, respectively.

COc1cc(/C=C/C(=O)CC(=O)/C=C/c2ccc(OC(=O)[C@H](CC(C)C)NC(=O)OCc3ccccc3)c(OC)c2)ccc1OC(=O)[C@H](CC(C)C)NC(=O)OCc1ccccc1 [Compound 9]
% inhibition of edema (1 h): 34%
Mean edema thickness (1 h): 1.59 ± 0.18 mm
% inhibition of edema (2 h): 10%
Mean edema thickness (2 h): 1.85 ± 0.21 mm
% inhibition of edema (3 h): 10%
Mean edema thickness (3 h): 1.61 ± 0.18 mm
% inhibition of edema (4 h): 11%
Mean edema thickness (4 h): 1.25 ± 0.09 mm
% inhibition of edema (24 h): 1%
Mean edema thickness (24 h): 0.82 ± 0.08 mm
Potency (% inhibition of edema relative to that of indomethacin reference standard): 13

COc1ccc2c(c1)c(CC(=O)O)c(C)n2C(=O)c1ccc(Cl)cc1 [Compound 2]
% inhibition of edema (1 h): 53%
Mean edema thickness (1 h): 1.11 ± 0.12 mm
% inhibition of edema (2 h): 59%
Mean edema thickness (2 h): 0.85 ± 0.09 mm
% inhibition of edema (3 h): 67%
Mean edema thickness (3 h): 0.59 ± 0.06 mm
% inhibition of edema (4 h): 87%
Mean edema thickness (4 h): 0.18 ± 0.03 mm
% inhibition of edema (24 h): 86%
Mean edema thickness (24 h): 0.12 ± 0.02 mm
Potency (% inhibition of edema relative to that of indomethacin reference standard): 100

COc1cc(/C=C/C(=O)CC(=O)/C=C/c2ccc(OC(=O)CCN)c(OC)c2)ccc1OC(=O)CCN.Cl.Cl [Compound 38]
% inhibition of edema (1 h): 69%
Mean edema thickness (1 h): 0.74 ± 0.09 mm
% inhibition of edema (2 h): 71%
Mean edema thickness (2 h): 0.60 ± 0.06 mm
% inhibition of edema (3 h): 77%
Mean edema thickness (3 h): 0.42 ± 0.03 mm
% inhibition of edema (4 h): 89%
Mean edema thickness (4 h): 0.16 ± 0.04 mm
% inhibition of edema (24 h): 72%
Mean edema thickness (24 h): 0.23 ± 0.01 mm
Potency (% inhibition of edema relative to that of indomethacin reference standard): 102

COc1cc(/C=C/C(=O)CC(=O)/C=C/c2ccc(OC(=O)[C@H](Cc3ccccc3)NC(=O)OC(C)(C)C)c(OC)c2)ccc1OC(=O)[C@H](Cc1ccccc1)NC(=O)OC(C)(C)C [Compound 23]
% inhibition of edema (1 h): 39%
Mean edema thickness (1 h): 1.47 ± 0.16 mm
% inhibition of edema (2 h): 44%
Mean edema thickness (2 h): 1.16 ± 0.09 mm
% inhibition of edema (3 h): 53%
Mean edema thickness (3 h): 0.85 ± 0.11 mm
% inhibition of edema (4 h): 59%
Mean edema thickness (4 h): 0.58 ± 0.03 mm
% inhibition of edema (24 h): 51%
Mean edema thickness (24 h): 0.41 ± 0.02 mm
Potency (% inhibition of edema relative to that of indomethacin reference standard): 68

COc1cc(/C=C/C(=O)CC(=O)/C=C/c2ccc(OC(=O)[C@@H](NC(=O)OCC3c4ccccc4-c4ccccc43)C(C)C)c(OC)c2)ccc1OC(=O)[C@@H](NC(=O)OCC1c2ccccc2-c2ccccc21)C(C)C [Compound 15]
% inhibition of edema (1 h): 22%
Mean edema thickness (1 h): 1.88 ± 0.22 mm
% inhibition of edema (2 h): 49%
Mean edema thickness (2 h): 1.05 ± 0.23 mm
% inhibition of edema (3 h): 50%
Mean edema thickness (3 h): 0.90 ± 0.17 mm
% inhibition of edema (4 h): 53%
Mean edema thickness (4 h): 0.66 ± 0.19 mm
% inhibition of edema (24 h): 47%
Mean edema thickness (24 h): 0.44 ± 0.11 mm
Potency (% inhibition of edema relative to that of indomethacin reference standard): 61

COc1cc(/C=C/C(=O)CC(=O)/C=C/c2ccc(OC(=O)[C@H](CC(C)C)NC(=O)OCC3c4ccccc4-c4ccccc43)c(OC)c2)ccc1OC(=O)[C@H](CC(C)C)NC(=O)OCC1c2ccccc2-c2ccccc21 [Compound 16]
% inhibition of edema (1 h): 40%
Mean edema thickness (1 h): 1.45 ± 0.18 mm
% inhibition of edema (2 h): 41%
Mean edema thickness (2 h): 1.22 ± 0.25 mm
% inhibition of edema (3 h): 48%
Mean edema thickness (3 h): 0.93 ± 0.20 mm
% inhibition of edema (4 h): 50%
Mean edema thickness (4 h): 0.70 ± 0.19 mm
% inhibition of edema (24 h): 40%
Mean edema thickness (24 h): 0.50 ± 0.10 mm
Potency (% inhibition of edema relative to that of indomethacin reference standard): 57

CC[C@H](C)[C@H](NC(=O)OC(C)(C)C)C(=O)Oc1ccc(/C=C/C(=O)CC(=O)/C=C/c2ccc(OC(=O)[C@@H](NC(=O)OC(C)(C)C)[C@@H](C)CC)c(OC)c2)cc1OC [Compound 31]
% inhibition of edema (1 h): 33%
Mean edema thickness (1 h): 1.61 ± 0.11 mm
% inhibition of edema (2 h): 38%
Mean edema thickness (2 h): 1.27 ± 0.07 mm
% inhibition of edema (3 h): 49%
Mean edema thickness (3 h): 0.91 ± 0.05 mm
% inhibition of edema (4 h): 51%
Mean edema thickness (4 h): 0.69 ± 0.02 mm
% inhibition of edema (24 h): 41%
Mean edema thickness (24 h): 0.49 ± 0.03 mm
Potency (% inhibition of edema relative to that of indomethacin reference standard): 59

COc1cc(/C=C/C(=O)CC(=O)/C=C/c2ccc(OC(=O)[C@H](Cc3ccccc3)NC(=O)OCC3c4ccccc4-c4ccccc43)c(OC)c2)ccc1OC(=O)[C@H](Cc1ccccc1)NC(=O)OCC1c2ccccc2-c2ccccc21 [Compound 18]
% inhibition of edema (1 h): 10%
Mean edema thickness (1 h): 2.17 ± 0.24 mm
% inhibition of edema (2 h): 41%
Mean edema thickness (2 h): 1.22 ± 0.16 mm
% inhibition of edema (3 h): 54%
Mean edema thickness (3 h): 0.82 ± 0.08 mm
% inhibition of edema (4 h): 60%
Mean edema thickness (4 h): 0.56 ± 0.04 mm
% inhibition of edema (24 h): 5%
Mean edema thickness (24 h): 0.79 ± 0.02 mm
Potency (% inhibition of edema relative to that of indomethacin reference standard): 69

COc1cc(/C=C/C(=O)CC(=O)/C=C/c2ccc(OC(=O)[C@H](CCC(N)=O)NC(=O)OCc3ccccc3)c(OC)c2)ccc1OC(=O)[C@H](CCC(N)=O)NC(=O)OCc1ccccc1 [Compound 21]
% inhibition of edema (1 h): 51%
Mean edema thickness (1 h): 1.18 ± 0.11 mm
% inhibition of edema (2 h): 47%
Mean edema thickness (2 h): 1.09 ± 0.19 mm
% inhibition of edema (3 h): 45%
Mean edema thickness (3 h): 0.99 ± 0.09 mm
% inhibition of edema (4 h): 44%
Mean edema thickness (4 h): 0.78 ± 0.10 mm
% inhibition of edema (24 h): 4%
Mean edema thickness (24 h): 0.80 ± 0.05 mm
Potency (% inhibition of edema relative to that of indomethacin reference standard): 51

COc1cc(/C=C/C(=O)CC(=O)/C=C/c2ccc(OC(=O)[C@@H](NC(=O)OC(C)(C)C)C(C)C)c(OC)c2)ccc1OC(=O)[C@@H](NC(=O)OC(C)(C)C)C(C)C [Compound 30]
% inhibition of edema (1 h): 13%
Mean edema thickness (1 h): 2.09 ± 0.21 mm
% inhibition of edema (2 h): 24%
Mean edema thickness (2 h): 1.57 ± 0.19 mm
% inhibition of edema (3 h): 25%
Mean edema thickness (3 h): 1.34 ± 0.11 mm
% inhibition of edema (4 h): 43%
Mean edema thickness (4 h): 0.80 ± 0.08 mm
% inhibition of edema (24 h): 30%
Mean edema thickness (24 h): 0.58 ± 0.10 mm
Potency (% inhibition of edema relative to that of indomethacin reference standard): 49
